In patent US11077090B2, “Compounds and compositions and uses thereof” (Sunovion Pharmaceuticals Inc., priority 2016, dated 2021):
Where a name gives a salt, the structure may show the parent alone. Read-outs that look alike come from different tables or passages of the source.

System: compound-treated mice
Assay: Neuropharmacological assay (SmartCube): behavioral activity signature and minimal effective dose
Type: in vivo
Settings: for minimal effective dose: Mus musculus, ip, MED = dose having 50% or more total activity; for AD: ADHD (probability of activity signature) / AG: analgesic (probability of activity signature) / AX: anxiolytic (probability of activity signature) / CE: cognitive enhancer (probability of activity signature) / DP: anti-depressant (probability of activity signature) / MS: mood stabilizer (probability of activity signature) / PS: anti-psychotic (probability of activity signature) / SD: sedative hypnotic (probability of activity signature) / UN: uncharacterized CNS activity (probability of activity signature): i.p. 15 min before test, most efficacious dose(s)
How it was run: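 Video-recorded behavior is compared algorithmically against a reference-compound database, yielding class probabilities (best dose reported). Compounds given i.p. in NMP/PEG/propylene glycol 15 min pre-test at 3 doses; potency as MED, the dose (mpk, range usually 0.3–30) reaching ≥50% total activity.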

[1] = read-out: Potency: minimal effective dose (MED), binned
[2] = read-out: Potency: minimal effective dose (MED)

| Structure (SMILES) | minimal effective dose [1] [mg/kg] | AD: ADHD (probability of activity signature) | AG: analgesic (probability of activity signature) | AX: anxiolytic (probability of activity signature) | CE: cognitive enhancer (probability of activity signature) | DP: anti-depressant (probability of activity signature) | MS: mood stabilizer (probability of activity signature) | PS: anti-psychotic (probability of activity signature) | SD: sedative hypnotic (probability of activity signature) | UN: uncharacterized CNS activity (probability of activity signature) | minimal effective dose [2] [mg/kg] |
| --- | --- | --- | --- | --- | --- | --- | --- | --- | --- | --- | --- |
| CC[C@H]1OCc2ccccc2[C@@H]1N(C)C.Cl (single isomer, unassigned) [Example 261] | 10 to 30 | ++ (5% ≤ ++ <25%) | + (LOQ ≤ + <5%) | + (LOQ ≤ + <5%) | + (LOQ ≤ + <5%) | ++++ (50% ≤ ++++) | + (LOQ ≤ + <5%) | + (LOQ ≤ + <5%) | ++ (5% ≤ ++ <25%) | ++ (5% ≤ ++ <25%) | – |
| Cl.N[C@H]1c2ccccc2CO[C@@H]1CF (single isomer, unassigned) [Example 276, cis-3-(fluoromethyl)isochroman-4-amine hydrochloride] | 3 to 10 | + (LOQ ≤ + <5%) | + (LOQ ≤ + <5%) | + (LOQ ≤ + <5%) | + (LOQ ≤ + <5%) | + (LOQ ≤ + <5%) | ++ (5% ≤ ++ <25%) | + (LOQ ≤ + <5%) | ++ (5% ≤ ++ <25%) | + (LOQ ≤ + <5%) | – |
| C[C@@H]1OC[C@@H](N(C)C)c2ccccc21 (stereo in doubt) [Example 239, cis-N,N,1-trimethylisochroman-4-amine hydrochloride] | 3 to 10 | ++ (5% ≤ ++ <25%) | ++ (5% ≤ ++ <25%) | ++ (5% ≤ ++ <25%) | ++ (5% ≤ ++ <25%) | ++ (5% ≤ ++ <25%) | + (LOQ ≤ + <5%) | ++ (5% ≤ ++ <25%) | + (LOQ ≤ + <5%) | +++ (25% ≤ +++ <50%) | – |
| Cl.NC1COCc2ccc(Cl)cc21 (stereo not drawn) [Example 1, 6-Chloroisochroman-4-amine hydrochloride] | – | + (LOQ ≤ + <5%) | ++ (5% ≤ ++ <25%) | ++ (5% ≤ ++ <25%) | ++ (5% ≤ ++ <25%) | + (LOQ ≤ + <5%) | + (LOQ ≤ + <5%) | ++ (5% ≤ ++ <25%) | ++ (5% ≤ ++ <25%) | ++ (5% ≤ ++ <25%) | 10 to 30 |
| Cl.NC1COCc2cc(Cl)ccc21 (stereo not drawn) [Example 2] | – | + (LOQ ≤ + <5%) | ++ (5% ≤ ++ <25%) | ++ (5% ≤ ++ <25%) | + (LOQ ≤ + <5%) | + (LOQ ≤ + <5%) | + (LOQ ≤ + <5%) | + (LOQ ≤ + <5%) | + (LOQ ≤ + <5%) | +++ (25% ≤ +++ <50%) | 10 to 30 |
| Cl.NC1COCc2cc(F)ccc21 (stereo not drawn) [Example 3] | – | + (LOQ ≤ + <5%) | ++ (5% ≤ ++ <25%) | ++ (5% ≤ ++ <25%) | + (LOQ ≤ + <5%) | ++ (5% ≤ ++ <25%) | + (LOQ ≤ + <5%) | + (LOQ ≤ + <5%) | ++ (5% ≤ ++ <25%) | +++ (25% ≤ +++ <50%) | 10 to 30 |
| Cc1ccc2c(c1)COCC2N.Cl (stereo not drawn) [Example 4] | – | + (LOQ ≤ + <5%) | ++ (5% ≤ ++ <25%) | +++ (25% ≤ +++ <50%) | ++ (5% ≤ ++ <25%) | ++ (5% ≤ ++ <25%) | + (LOQ ≤ + <5%) | ++ (5% ≤ ++ <25%) | ++ (5% ≤ ++ <25%) | + (LOQ ≤ + <5%) | 10 to 30 |
| Cl.NC1COCc2c(Cl)cccc21 (stereo not drawn) [Example 5] | – | + (LOQ ≤ + <5%) | ++ (5% ≤ ++ <25%) | ++ (5% ≤ ++ <25%) | ++ (5% ≤ ++ <25%) | ++ (5% ≤ ++ <25%) | + (LOQ ≤ + <5%) | ++ (5% ≤ ++ <25%) | ++ (5% ≤ ++ <25%) | +++ (25% ≤ +++ <50%) | < 3 |
| NC1COCc2ccc(F)cc21 (stereo not drawn) [Example 6] | – | + (LOQ ≤ + <5%) | ++ (5% ≤ ++ <25%) | ++ (5% ≤ ++ <25%) | + (LOQ ≤ + <5%) | ++ (5% ≤ ++ <25%) | + (LOQ ≤ + <5%) | + (LOQ ≤ + <5%) | ++ (5% ≤ ++ <25%) | ++++ (50% ≤ ++++) | 3 to 10 |
| Cl.NC1COCc2ccc(-c3ccccc3)cc21 (stereo not drawn) [Example 7, 6-Phenylisochroman-4-amine hydrochloride] | – | + (LOQ ≤ + <5%) | + (LOQ ≤ + <5%) | ++ (5% ≤ ++ <25%) | ++ (5% ≤ ++ <25%) | ++ (5% ≤ ++ <25%) | ++ (5% ≤ ++ <25%) | ++ (5% ≤ ++ <25%) | + (LOQ ≤ + <5%) | +++ (25% ≤ +++ <50%) | 10 to 30 |
| CC(C)c1ccc2c(c1)C(N)COC2.Cl (stereo not drawn) [Example 8, 6-Isopropylisochroman-4-amine hydrochloride] | – | + (LOQ ≤ + <5%) | ++ (5% ≤ ++ <25%) | ++ (5% ≤ ++ <25%) | ++ (5% ≤ ++ <25%) | ++ (5% ≤ ++ <25%) | + (LOQ ≤ + <5%) | ++ (5% ≤ ++ <25%) | +++ (25% ≤ +++ <50%) | ++ (5% ≤ ++ <25%) | 10 to 30 |
| Cl.NC1COCc2ccc(C(F)(F)F)cc21 (stereo not drawn) [Example 9, 6-Trifluoromethylisochroman-4-amine hydrochloride] | – | + (LOQ ≤ + <5%) | ++ (5% ≤ ++ <25%) | ++ (5% ≤ ++ <25%) | ++ (5% ≤ ++ <25%) | ++ (5% ≤ ++ <25%) | + (LOQ ≤ + <5%) | ++ (5% ≤ ++ <25%) | + (LOQ ≤ + <5%) | +++ (25% ≤ +++ <50%) | 3 to 10 |
